Publication PMC7674337, “Phylogenetic analysis of plant multi-domain SEC14-like phosphatidylinositol transfer proteins and structure–function properties of PATELLIN2” (Plant Molecular Biology, 2020)

Molecular target: T1, PATL2 (PATELLIN2; StrepII-PATL2) (Arabidopsis thaliana, UniProt Q56ZI2)
T1 construct: full-length CDS from Col-0 root cDNA; StrepII-tagged (pET-52b(+)), E. coli BL21(DE3) pLysS; Strep-Tactin purified
T1 sequence (Q56ZI2 2-683): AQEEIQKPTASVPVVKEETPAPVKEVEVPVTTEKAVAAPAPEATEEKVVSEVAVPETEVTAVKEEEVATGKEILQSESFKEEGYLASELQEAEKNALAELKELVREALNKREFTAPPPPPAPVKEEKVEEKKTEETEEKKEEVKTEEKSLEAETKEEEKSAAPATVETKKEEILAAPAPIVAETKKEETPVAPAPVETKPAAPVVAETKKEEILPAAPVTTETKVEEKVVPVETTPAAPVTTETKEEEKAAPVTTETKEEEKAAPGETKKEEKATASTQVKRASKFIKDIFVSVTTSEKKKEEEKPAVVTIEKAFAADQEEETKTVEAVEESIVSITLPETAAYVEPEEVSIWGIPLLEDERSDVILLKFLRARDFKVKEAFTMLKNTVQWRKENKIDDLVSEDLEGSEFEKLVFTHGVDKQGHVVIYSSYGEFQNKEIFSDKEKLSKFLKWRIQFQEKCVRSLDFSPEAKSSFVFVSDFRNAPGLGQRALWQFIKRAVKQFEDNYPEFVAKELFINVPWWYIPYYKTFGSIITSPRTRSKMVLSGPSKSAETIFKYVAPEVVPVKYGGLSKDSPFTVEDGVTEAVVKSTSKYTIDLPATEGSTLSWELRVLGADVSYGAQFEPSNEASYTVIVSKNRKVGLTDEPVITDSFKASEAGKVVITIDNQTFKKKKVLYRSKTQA
Assay: liposome co-sedimentation, immunoblot
Type: binding
Details: PC/PE liposomes with 7% phosphoinositide; 25 mM Tris-HCl pH 7.5, room temperature

CCCCCCCC/C=C\CCCCCCCC(=O)OC[C@H](COP(=O)(O)O[C@@H]1[C@H](O)[C@H](O)[C@@H](O)[C@H](O)[C@H]1O)OC(=O)CCCCCCC/C=C\CCCCCCCC [PI, 1,2-dioleoyl-sn-glycero-3-phospho-(1′-myo-inositol)]
liposome co-sedimentation, immunoblot: a low amount of PATL2 protein was found in the liposome membrane fraction
